# According to US20230391825A1, “ENHANCED SKIN PERMEATION OF A NOVEL PEPTIDE VIA STRUCTURAL MODIFICATION, CHEMICAL ENHANCEMENT, AND MICRONEEDLES” (ESCAPE THERAPEUTICS, INC., priority 2020, published 2023):
# Peptide text beside a SMILES is read from it.
# Key:
# mushroom tyrosinase = details: cited from earlier work
# melasma = details: cited from earlier work
# [1] = assay type: in vitro ADME
# From the text: Human dermatomed skin was obtained from Science Care (Arizona, USA). The skin tissues were excised from the thighs of two male cadavers with age at death of 66 and 57. The skin samples used in the study were without identifier and exempted from ethical review. The Integrity of cadaver skin was checked using visual inspection before use to ensure no pores or breaks in the skin surface were present. In addition, any compromise in skin integrity was identified through observation of a rapid and large increase in the amount of permeated peptide through the skin at the first sampling time point.
# Franz type diffusion cells were used. Human epidermis was mounted between donor and receptor compartments and excessive skin at the sides was trimmed off to minimize lateral diffusion. SC was faced towards the donor compartment and the skin area for permeation was 1.327 square centimeters. The receptor compartment was filled with 5.5 milliliters of 1 millimolar PBS solution containing 1 percent (volume/volume) antibacterial antimycotic solution. Receptor solution was filtered twice to prevent formation of air bubbles beneath the epidermis. […] Permeation was measured over 24 hours.
# The amount of peptide permeated was determined using Shimadzu CBM-20A HPLC system with Agilent ODS C18 column (4.6 millimeters x 250 millimeters x 5 microns, 170 Angstroms). […]
# human tyrosinase = target: T1, human tyrosinase (Homo sapiens, UniProt P14679); details: cited from earlier work
# T1 sequence (P14679 19-529): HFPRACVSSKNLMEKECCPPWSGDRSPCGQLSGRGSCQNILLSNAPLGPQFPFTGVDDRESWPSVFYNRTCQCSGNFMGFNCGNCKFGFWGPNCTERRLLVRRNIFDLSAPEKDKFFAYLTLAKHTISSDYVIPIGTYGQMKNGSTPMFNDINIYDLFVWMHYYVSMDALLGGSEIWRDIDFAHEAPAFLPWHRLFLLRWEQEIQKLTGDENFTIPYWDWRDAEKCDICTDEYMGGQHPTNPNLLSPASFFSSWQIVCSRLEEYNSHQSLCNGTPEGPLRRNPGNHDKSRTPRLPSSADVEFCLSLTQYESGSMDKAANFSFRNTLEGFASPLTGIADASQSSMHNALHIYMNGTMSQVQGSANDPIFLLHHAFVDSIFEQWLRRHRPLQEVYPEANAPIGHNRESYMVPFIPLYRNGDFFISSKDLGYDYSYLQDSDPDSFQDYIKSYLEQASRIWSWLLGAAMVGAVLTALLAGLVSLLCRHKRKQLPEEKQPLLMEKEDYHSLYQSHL
smiles,measurement,setting,value
"N=C(N)NCCC[C@H](NC(=O)[C@H](CO)NC(=O)[C@H](CCCNC(=N)N)NC(=O)[C@@H](N)Cc1ccc(O)cc1)C(=O)N[C@@H](CCCCN)C(=O)N[C@@H](Cc1ccc(O)cc1)C(=O)N[C@@H](CO)C(=O)N[C@@H](CO)C(=O)N[C@@H](Cc1c[nH]c2ccccc12)C(=O)N[C@@H](Cc1ccc(O)cc1)C(=O)O [Native peptide, decapeptide-12] (H-YRSRKYSSWY-OH)",Competitive inhibition effect compared with hydroquinone,mushroom tyrosinase,stronger competitive inhibition effect
same,Efficacy in reducing content of melanin,melasma; 16 weeks of twice daily treatment,more than 50%
same,Safety compared with hydroquinone,melasma; in vivo,safer than hydroquinone
same,Effect in treatment of melasma,"melasma; studies on humans, topical",good efficacy
same,Effect of enhancers on skin permeation,[1],didn't alter skin permeation
same,Competitive inhibition effect compared with hydroquinone,human tyrosinase,stronger competitive inhibition effect
